# Assay results: patent US5274002A, “Trisubstituted phenyl analogs having activity for congestive heart failure” (Warner-Lambert Company, priority 1990, dated 1993)
# pEC50: −log10 of the molar value.
# Key:
# [1] = test system: isolated Langendorff rat heart; assay: isolated Langendorff rat heart (CVIH), coronary flow; conditions: In Vitro Langendorf Isolated Rat Heart, constant perfusion pressure 70 mm Hg, 37° C.; for EC25: read-out: EC 25 (Coronary Flow); for pEC50: read-out: EC 50 (Coronary Flow)
# Description: TEST FOR INOTROPIC, CHRONOTROPIC, AND VASCULAR ACTIVITIES IN THE ISOLATED LANGENDORFF RAT HEART (CVIH)
# Male rats (400-600 gms) are pretreated with 2000 units Na heparin (Parke-Davis) and anesthetized with Na pentobarbital (50 mg/kg, Butler Co.) administered intraperitoneally. Once anesthetized, the rat heart is rapidly excised, the ascending aorta fitted to the aortic perfusion cannula, and secured with a ligature. The coronary arteries were perfused initially at a rate of about 15 ml/min for two to three minutes, after which they are perfused at constant pressure of 70 mm Hg and temperature of 37° C. The electrocardiogram (ECG) is recorded using two platinum electrodes positioned at the base and apex of the left ventricle. A second heart is excised, cannulated, and perfused by the same method outlined above. Both hearts are tested in parallel. The standard physiological salt solution (PSS) is a modified Krebs-Hanseleit bicarbonate buffer of the following composition in mM concentration: NaCl, 127; NaHCO3, 25; dextrose, 5.5; Na Pyruvate, 2.0; KCl, 4.7;MgSO4, 1.1; KH2 PO4, 1.2; CaCl2 ·2H2O, 2.5; CaNa2 EDTA, 0.05.
# A 30-minute stabilization period is observed before starting the test protocol.
# Microprocessor Controlled Coronary Perfusion and Drug Delivery System
# The microprocessor control system is a servo mechanism which permits coronary perfusion pressure (CPP) and drug concentration to be maintained constant independent of changes in coronary flow. The level at which CPP and drug concentration are maintained can be changed by commands communicated through the microprocessor keyboard. Dose-response curves are carried out by perfusing a solution at a specified drug concentration (DC) at rates proportional to total coronary flow (CFT). Drug concentrations are increased by proportionate increases in the rate of DC infusion over CFT via the microprocessor keyboard. The proportional flow rates for DC:CFT is about 0.0002:1 at the low end and 0.02:1 at the high end of the dose-response curve. Dose-response curves encompassing at least two log doses are carried out by preparing two DCs with a concentration difference of 1:100. Following the first dose range of two log doses, the DC is switched, proportional pumping rate adjusted, and the dose-response curve continued for another two log doses. The standard dose-response curve is carried out in one-half log dose increments starting at a subthreshold dose and ending at a dose which produces near maximal response in activity. Standard reference compounds are tested over the range of 10^-9 to 10^-6 M.
# Measurements are for coronary flow (CF). Units are: CF, milliliters/minute (ml/min). CF is calculated by recording analog outputs from pumps 1 and 2. Outputs from pump #1=CFT and the output from pump #2=CF for heart B (CFB) CF for heart A (CFA) is calculated (CFT -CFB =CFA).
# Using the above coronary blood flow evaluation technique, the effects of the compounds of each indicated example is shown as the EC (effective concentration) 25/(effective concentration) EC 50.
# anesthetized dog = assay: in vivo myocardial inotropic activity in the anesthetized dog; conditions: 1.0 mg/kg, change from control data prior to dosing
# Description: TEST FOR IN VIVO MYOCARDIAL INOTROPIC ACTIVITY IN THE ANESTHETIZED DOG
# Adult mongrel dogs of either sex are anesthetized with pentobarbital, 35 mg/kg, IV, and are maintained under anesthesia with a continuous infusion of pentobarbital, 3.5 mg/kg/hr. The trachea is intubated, but the animals are permitted to breathe spontaneously. A cannula is inserted into the femoral vein for administering test agents. A Millar catheter tip pressure transducer or a fluid filled catheter is inserted into the ascending aorta via the femoral artery for measuring pressure. A Millar catheter tip pressure transducer is passed into the left ventricle via the left carotid artery for measuring left ventricular blood pressure. Needle electrodes are placed subcutaneously for recording a lead II electrocardiogram. Before administering test agents, control data is acquired over a period of at least thirty minutes.
# The test agent is dissolved in dimethylacetamide. Each dose is administered in a volume of 0.5 ml over a period of one minute. Appropriate vehicle controls are also administered.
# When tested by this protocol, representative compounds of formula I, when administered at a dose of 1 mg/kg, produced an increase in contractility, a minimal increase in blood pressure, and an increase in heart rate as shown in the following Table B.
Compound,EC25 [1] [µM],pEC50 [1],"Blood Pressure, percent increase (+) or decrease (-) from control data (anesthetized dog)","Contractility, percent increase (+) or decrease (-) from control data (anesthetized dog)","Heart Rate, percent increase (+) or decrease (-) from control data (anesthetized dog)"
"COC(=O)/C=C/c1ccc(OC)c(OC2CCCC2)c1 [Example 3, Methyl 3-(3-cyclopentoxy-4-methoxyphenyl)-E-propenoate]",2,< 3.30,+16%,+77%,+20%
"COc1ccc(/C=C/C=O)cc1OC1CCCC1 [Example 21, 3-(3-Cyclopentoxy-4-methoxyphenyl)-E-propene-1-aldehyde]",1.1,5.70,-1%,+62%,+35%
"COc1ccc(CCC(=O)O)cc1OC1CCCC1 [Example 13, 3-(3-Cyclopentoxy-4-methoxyphenyl)-n-propanoic acid]",4,4.82,+9%,+47%,+23%
"COC(=O)CCc1ccc(OC)c(OC2CCCC2)c1 [Example 9, Methyl 3-(3-cyclopentoxy-4-methoxyphenyl)-n-propionate]",15,4.66,+5%,+36%,+41%
"COc1ccc(CCC(N)=O)cc1OC1CCCC1 [Example 16, 3-(3-Cyclopentoxy-4-methoxyphenyl)-n-propionyl amide]",3,5.00,+5%,+127%,+25%
"COc1ccc(CCCO)cc1OC1CCCC1 [Example 19, 3-(3-Cyclopentoxy-4-methoxyphenyl)-n-1-propanol]",2,5.15,+9%,+91%,+25%
